From patent publication US11266662B2, “Ganaxolone for use in prophylaxis and treatment of postpartum depression” (Marinus Pharmaceuticals, Inc., priority 2018, dated 2022)
“And” between values parts separate entries of the source, which are not always exact repeats. Equal values may be shown once.

Assay: Phase 2A study (Magnolia) in women with postpartum depression: ganaxolone plasma concentrations / pharmacokinetics
Conditions: for GNX Concentration: individual subjects, listed as GNX; for concentration at 12 h / concentration at 24 h / concentration at 48 h / concentration at 24 hr / concentration at 48 hr / concentration at 12 hr / AUC: female, human, plasma; for concentration at 12 h / concentration at 24 h / concentration at 48 h / concentration at 24 hr / concentration at 48 hr / concentration at 12 hr: intravenous, Mean average GNX Concentration; for AUC: iv, 86 ug/kg, dose 86 μg/kg/hr (row order of Table 1C)
Protocol: Approximately 200 women with PPD 18 to 45 years of age are screened to randomize up to 100 subjects across up to 6 cohorts. Approximately 10-30 subjects are randomized into each cohort. Randomized subjects receive the investigational product (IP), ganaxolone or matching placebo in a 1:1 ratio. In Cohorts 1-5 the IP is administered intravenously over 60 hours. In Cohort 6 the dosing is initiated with a 6-hour intravenous (IV) infusion followed by oral dosing for 28 days plus 3-day taper.
Ganaxolone is infused at a rate of 4 mg/hr (16 ml/h of ganaxolone 0.25 mg/ml solution) for 48 hours and then, to minimize any risks for withdrawal or rebound of anxiety and depression symptoms, at a rate of 2 mg/hr for the next 12 hours. The infusion is stopped at 60 hours. Total of 9 subjects are dosed for this cohort.
Ganaxolone is infused at a rate of 8 mg/hr (16 ml/h of ganaxolone 0.5 mg/ml solution) for 48 hours and then at a rate of 4 mg/hr for the next 12 hours. This dose is approximately double the expected plasma exposure as compared to Cohort 1 at steady state (Cohort 2 expected plasma concentration ˜100-120 ng/mL). The infusion is stopped at 60 hours.
Twelve mg bolus of ganaxolone is initially given over 2 minutes followed by ganaxolone infusion at a rate of 12 mg/hr (24 ml/h of ganaxolone 0.5 mg/ml solution) for 48 hours. The rate is then reduced to 6 mg/hr for the next 12 hours, which is done to minimize any risks for withdrawal or rebound of anxiety and depression symptoms. The infusion is stopped at 60 hours.
In this cohort dosing is initiated with ganaxolone infusion at a rate of 20 mg/hr (40 ml/h of ganaxolone 0.5 mg/ml solution or matching placebo) for 6 hours followed by ganaxolone 900 mg (four 225 mg capsules per dose) or matching placebo capsules given orally at dinner time for 28 days followed by a 3-day taper (three, two, and one 225 mg capsule(s) per day, respectively).
This initial infusion is targeted to provide a fast onset of antidepressant activity by delivery of rapid plasma exposures to ganaxolone. Then, at dinner time of Day 1 the subjects take their first oral dose of ganaxolone 900 mg (four 225 mg capsules) or matching placebo (4 capsules). […] In previous studies, ganaxolone has been given up to a daily dose of 2000 mg, and at single doses of 1000 mg.
Six samples are collected for pharmacokinetic analysis in Cohorts 1-5 and 12 samples in Cohort 6. […] Seven samples are collected during the inpatient phase of Cohort 6 (including 6 samples on Day 1) followed by collection of 5 samples during the outpatient phase during the study visits for a total of 12 samples in Cohort 6.

Compound: CC(=O)[C@H]1CC[C@H]2[C@@H]3CC[C@H]4C[C@](C)(O)CC[C@]4(C)[C@H]3CC[C@]12C [ganaxolone, 3α-hydroxy-3β-methyl-5α-pregnan-20-one]
- Targeted ganaxolone plasma concentration at steady state (Css) (Cohort 1, infusion rate 4 mg/hr, estimated target): 52 ng/mL
- GNX Concentration (Cohort 1: IV 4 mg/hr for 48 h then 2 mg/hr for 12 h, time 12 hr): 61.6 ng/mL
- GNX Concentration (Cohort 1: IV 4 mg/hr for 48 h then 2 mg/hr for 12 h, time 24 hr): 59 ng/mL
- Expected plasma concentration at steady state (Cohort 2, 8 mg/hr): 100 to 120 ng/mL
- GNX Concentration (Cohort 2: IV 8 mg/hr for 48 h then 4 mg/hr for 12 h, time 12 hr): 107 ng/mL (2×) and 70.8 ng/mL and 111 ng/mL and 150 ng/mL and 115 ng/mL and 63.3 ng/mL and 69.3 ng/mL and 116 ng/mL and 49.5 ng/mL and 146 ng/mL and 183 ng/mL and 140 ng/mL and 71.5 ng/mL and 77.6 ng/mL
- GNX Concentration (Cohort 2: IV 8 mg/hr for 48 h then 4 mg/hr for 12 h, time 24 hr): 125 ng/mL and 92 ng/mL and 140 ng/mL and 45.5 ng/mL and 75.7 ng/mL and 106 ng/mL and 96.5 ng/mL and 1590* ng/mL and 142 ng/mL and 80.6 ng/mL and 175 ng/mL and 174 ng/mL and 162 ng/mL and 89.3 ng/mL and 26100* ng/mL
- GNX Concentration (Cohort 2: IV 8 mg/hr for 48 h then 4 mg/hr for 12 h, time 48 hr): 120 ng/mL (2×) and 136 ng/mL and 102 ng/mL and 197 ng/mL and 92 ng/mL and 77.8 ng/mL and 73.9 ng/mL and 118 ng/mL and 73.1 ng/mL and 131 ng/mL and 298 ng/mL and 132 ng/mL and 93.6 ng/mL and 7390* ng/mL
- GNX Concentration (Cohort 2: IV 8 mg/hr for 48 h then 4 mg/hr for 12 h, time 72 hr): 27.1 ng/mL and 26.4 ng/mL and 30.1 ng/mL and 28.2 ng/mL and 11.9 ng/mL and 23.9 ng/mL and 23.1 ng/mL and 26.8 ng/mL and 25.6 ng/mL and 19.4 ng/mL and 46.2 ng/mL and 26.9 ng/mL and 21.5 ng/mL and 18.1 ng/mL and 27.5 ng/mL
- Expected peak plasma concentrations during initial 2-minute bolus (Cohort 3, 12 mg bolus over 2 minutes): up to 300 ng/ml
- GNX Concentration (Cohort 3: 12 mg bolus, IV 12 mg/hr for 48 h then 6 mg/hr for 12 h, time 12 hr): 137 ng/mL and 100 ng/mL and 106 ng/mL and 118 ng/mL and 138 ng/mL and 230 ng/mL and 126 ng/mL and 204 ng/mL and 61.1 ng/mL
- GNX Concentration (Cohort 3: 12 mg bolus, IV 12 mg/hr for 48 h then 6 mg/hr for 12 h, time 24 hr): 164 ng/mL and 125 ng/mL and 148 ng/mL and 163 ng/mL and 165 ng/mL and 254 ng/mL and 144 ng/mL and 250 ng/mL and 56 ng/mL and 16 ng/mL
- GNX Concentration (Cohort 3: 12 mg bolus, IV 12 mg/hr for 48 h then 6 mg/hr for 12 h, time 48 hr): 207 ng/mL and 146 ng/mL and 212 ng/mL and 66.4 ng/mL and 211 ng/mL and 213 ng/mL and 4160* ng/mL and 209 ng/mL and 85 ng/mL
- GNX Concentration (Cohort 3: 12 mg bolus, IV 12 mg/hr for 48 h then 6 mg/hr for 12 h, time 72 hr): 49.3 ng/mL and 26.1 ng/mL and 30 ng/mL and 46.2 ng/mL and 44.6 ng/mL and 42.8 ng/mL and 30.2 ng/mL and 31.7 ng/mL and 17.5 ng/mL and 15.2 ng/mL
- concentration at 12 h (86 μg/kg/hr, calculated for dose 86 μg/kg/hr, time 12 hr): 81.4 ng/mL
- concentration at 24 h (86 μg/kg/hr, calculated for dose 86 μg/kg/hr, time 24 hr): 91.2 ng/mL
- concentration at 48 h (86 μg/kg/hr, calculated for dose 86 μg/kg/hr, time 48 hr): 100 ng/mL
- concentration at 12 h (150 μg/kg/hr, calculated for dose 150 μg/kg/hr, time 12 hr): 142 ng/mL
- concentration at 24 hr (150 μg/kg/hr, calculated for dose 150 μg/kg/hr, time 24 hr): 159 ng/mL
- concentration at 48 hr (150 μg/kg/hr, calculated for dose 150 μg/kg/hr, time 48 hr): 175 ng/mL
- concentration at 12 hr (160 μg/kg/hr, calculated for dose 160 μg/kg/hr, time 12 hr): 151 ng/mL
- concentration at 24 hr (160 μg/kg/hr, calculated for dose 160 μg/kg/hr, time 24 hr): 170 ng/mL
- concentration at 48 hr (160 μg/kg/hr, calculated for dose 160 μg/kg/hr, time 48 hr): 187 ng/mL
- concentration at 12 hr (170 μg/kg/hr, calculated for dose 170 μg/kg/hr, time 12 hr): 161 ng/mL
- concentration at 24 hr (170 μg/kg/hr, calculated for dose 170 μg/kg/hr, time 24 hr): 180 ng/mL
- concentration at 48 hr (170 μg/kg/hr, calculated for dose 170 μg/kg/hr, time 48 hr): 199 ng/mL
- concentration at 12 h (180 μg/kg/hr, calculated for dose 180 μg/kg/hr, time 12 hr): 170 ng/mL
- concentration at 24 h (180 μg/kg/hr, calculated for dose 180 μg/kg/hr, time 24 hr): 191 ng/mL
- concentration at 48 h (180 μg/kg/hr, calculated for dose 180 μg/kg/hr, time 48 hr): 210 ng/mL
- concentration at 12 h (190 μg/kg/hr, calculated for dose 190 μg/kg/hr, time 12 hr): 180 ng/mL
- concentration at 24 h (190 μg/kg/hr, calculated for dose 190 μg/kg/hr, time 24 hr): 202 ng/mL
- concentration at 48 h (190 μg/kg/hr, calculated for dose 190 μg/kg/hr, time 48 hr): 222 ng/mL
- concentration at 12 h (200 μg/kg/hr, calculated for dose 200 μg/kg/hr, time 12 hr): 189 ng/mL
- concentration at 24 h (200 μg/kg/hr, calculated for dose 200 μg/kg/hr, time 24 hr): 212 ng/mL
- concentration at 48 h (200 μg/kg/hr, calculated for dose 200 μg/kg/hr, time 48 hr): 234 ng/mL
- concentration at 12 h (210 μg/kg/hr, calculated for dose 210 μg/kg/hr, time 12 hr): 199 ng/mL
- concentration at 24 h (210 μg/kg/hr, calculated for dose 210 μg/kg/hr, time 24 hr): 223 ng/mL
- concentration at 48 h (210 μg/kg/hr, calculated for dose 210 μg/kg/hr, time 48 hr): 246 ng/mL
- concentration at 12 h (220 μg/kg/hr, calculated for dose 220 μg/kg/hr, time 12 hr): 208 ng/mL
- concentration at 24 h (220 μg/kg/hr, calculated for dose 220 μg/kg/hr, time 24 hr): 233 ng/mL
- concentration at 48 h (220 μg/kg/hr, calculated for dose 220 μg/kg/hr, time 48 hr): 257 ng/mL
- concentration at 12 h (260 μg/kg/hr, calculated for dose 260 μg/kg/hr, time 12 hr): 246 ng/mL
- concentration at 24 h (260 μg/kg/hr, calculated for dose 260 μg/kg/hr, time 24 hr): 276 ng/mL
- concentration at 48 h (260 μg/kg/hr, calculated for dose 260 μg/kg/hr, time 48 hr): 304 ng/mL
- AUC (AUC12-24, calculated from Table 1C): 1040 ng·h/mL
- AUC (AUC12-48, calculated from Table 1C): 3340 ng·h/mL
